Values of other authors as cited in patent US20250262358A1, “SURGICAL SYSTEM AND METHODS OF USE” (MEDTRONIC, INC., priority 2021, published 2025).

Tested on: myofibroblast formation
Details: animal studies of capsular contracture with breast implants; Ajmal et al. (2003)

O=S(=O)([O-])CCS.[Na+] [MESNA, sodium 2-mercaptoethane sulfonate]
myofibroblast formation: diminish myofibroblast formation
